{
  "source": "patent US7232839B2",
  "about": "“Benzoisothiazolone compositions” (L'Oreal, priority 2004, dated 2007)",
  "key": {"[1]": {"tested_on": "immortalized human sebocytes in culture, derived from the SZ95 line", "experiment": "Lipogenesis test: lipid content of sebocytes in culture by Nile red fluorescence", "format": "cell-based", "conditions": "for LIPID VARIATION (relative to the control): treatment for 2 days, neutral lipids, Nile red", "description": "The activity of the compounds (2c) and (1e) described above was tested on a model of immortalized human sebocytes in culture, derived from the SZ95 line described in Zouboulis, C. C., Seltmann, H., Neitzel, H. & Orfanos, C. E., Establishment and Characterization of an Immortalized Human Sebaceous Gland Cell Line, J. Invest. Dermatol., 113, 1011–1020 (1999).\nThe test consisted in measuring the amount of lipids produced by the sebocytes of the line (at confluence), in the presence or absence of an active agent, diluted in DMSO, such that the final amount of DMSO in the culture medium is 0.1%. After treatment for 2 days, the adherent cells are treated with Nile red (1 μg/ml). The lipid content is then quantified by measuring the fluorescence of the dye (excitation/emission couple: 485–540 nm for the neutral lipids).\nThe tests are performed in sextuplicate and the experiment is repeated four times."}, "[2]": {"tested_on": "immortalized human sebocytes in culture, derived from the SZ95 line", "experiment": "Proliferation tests (MUH) and cell viability tests (LDH) run in parallel", "format": "cell-based", "text": "In parallel, proliferation tests (MUH) and cell viability tests (LDH) make it possible to check that the, effects obtained are not associated with an appreciable change in these biological parameters."}},
  "data": [
    {"smiles": "COc1ccc(N2C(=O)c3c(OC)cccc3S2(=O)=O)cc1", "note": "[(2c), 4-methoxy-2-(4-methoxyphenyl)-1,2-benzisothiazol-3(2H)-one 1,1-dioxide]", "values": [
      {"measurement": "LIPID VARIATION (relative to the control)", "setting": "[1]; concentration 10^−6 M", "value": "+43%"},
      {"measurement": "Proliferation/cytotoxicity", "setting": "[2]; concentration 10^−6 M", "value": "no"}
    ]},
    {"smiles": "O=C1c2c(O)cccc2S(=O)(=O)N1c1ccccc1", "note": "[(1e), 4-hydroxy-2-phenyl-1,2-benzisothiazol-3(2H)-one 1,1-dioxide]", "values": [
      {"measurement": "LIPID VARIATION (relative to the control)", "setting": "[1]; concentration 10^−4 M", "value": "+39%"},
      {"measurement": "LIPID VARIATION (relative to the control)", "setting": "[1]; concentration 10^−6 M", "value": "+16%"},
      {"measurement": "Proliferation/cytotoxicity", "setting": "[2]; concentration 10^−4 M", "value": "no"},
      {"measurement": "Proliferation/cytotoxicity", "setting": "[2]; concentration 10^−6 M", "value": "no"}
    ]},
    {"smiles": "C[C@]12CC[C@H](O)CC1=CC[C@@H]1[C@@H]2CC[C@]2(C)C(=O)CC[C@@H]12", "note": "[DHEA, reference compound]", "values": [
      {"measurement": "increase in the lipid content of the sebum", "setting": "[1]; concentration 10^−5 M, same test", "value": 13, "unit": "%"}
    ]}
  ]
}
